Source: the supplement of paper PMC11451515

Columns and labels:
Conditions in all cases: 48 h
P12-Ichikawa [1] = assay: cell viability relative to DMSO control; higher = less cytotoxic
Method in brief: (§1)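 NOMO1 or SEM cells were plated at 500 cells/well and P12-Ichikawa cells at 1000 cells/well in 1536-well plates (5 μl), after each leukemia line had been adapted for at least four passages in each medium. Pin dosing delivered library compounds in DMSO at 11 threefold concentrations, 47 μM to 0.79 nM. CellTiter-Glo One luminescence was read after 48 h at 37°C. Viability is reported as a per-plate percentage of DMSO wells, with cell-free wells as background.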

SEM cells [2] = assay: as above
Method in brief: as §1

NOMO1 [3] = assay: AUC of viability dose-response curve (% viability x log10 dose units); higher = less sensitive
Method in brief: (§2)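 Leukemia cells adapted to each medium were seeded in 1536-well plates (500 or 1000 cells/well) and given library compounds in DMSO for 48 h at 37°C. The 11 threefold doses spanned 47 μM to 0.79 nM, and CellTiter-Glo One luminescence was normalised per plate to DMSO and cell-free wells before four-parameter log-logistic fitting on log10 dose. Area under the curve was integrated with the trapezoidal rule, scaling curves above full viability and removing curves that failed quality control.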

P12-Ichikawa [4] = assay: as above
Method in brief: as §2

SEM cells [5] = assay: as above
Method in brief: as §2

NOMO1 [6] = assay: cell viability relative to DMSO control; higher = less cytotoxic
Method in brief: as §1

NC(=O)OCC(COC(N)=O)c1ccccc1
cell viability [%]
Conditions | HPLM + 10% dialyzed FBS | RPMI 5 mM glucose + 10% FBS | RPMI 5 mM glucose + 10% dialyzed FBS
P12-Ichikawa [1], 0.000781 µM | – | 118 | –
P12-Ichikawa [1], 0.00234 µM | – | 123 | –
P12-Ichikawa [1], 0.00702 µM | – | 120 | –
P12-Ichikawa [1], 0.0211 µM | – | 118 | –
P12-Ichikawa [1], 0.0632 µM | – | 126 | –
P12-Ichikawa [1], 0.19 µM | – | 113 | –
P12-Ichikawa [1], 0.569 µM | – | 136 | –
P12-Ichikawa [1], 1.71 µM | – | 115 | –
P12-Ichikawa [1], 5.12 µM | – | 116 | –
P12-Ichikawa [1], 15.4 µM | – | 113 | –
P12-Ichikawa [1], 46.1 µM | – | 108 | –
SEM cells [2], 0.000781 µM | 91 | 119 | 99.7
SEM cells [2], 0.00234 µM | 99.6 | 121 | 107
SEM cells [2], 0.00702 µM | 102 | 104 | 99.4
SEM cells [2], 0.0211 µM | 87.3 | 119 | 115
SEM cells [2], 0.0632 µM | 101 | 113 | 111
SEM cells [2], 0.19 µM | 86.1 | 113 | 99.9
SEM cells [2], 0.569 µM | 103 | 102 | 109
SEM cells [2], 1.71 µM | 104 | 115 | 99
SEM cells [2], 5.12 µM | 92.8 | 99.8 | 97.9
SEM cells [2], 15.4 µM | 91 | 117 | 101
SEM cells [2], 46.1 µM | 90.6 | 105 | 105

AUC of viability dose-response curve
Conditions | NOMO1 [3] | P12-Ichikawa [4] | SEM cells [5]
HPLM + 10% dialyzed FBS | 434 | 465 | 455
RPMI 5 mM glucose + 10% FBS | 465 | 460 | 448
RPMI 5 mM glucose + 10% dialyzed FBS | 456 | 465 | 471

Cc1cccc(/C=N/Nc2cc(N3CCOCC3)nc(OCCc3ccccn3)n2)c1
cell viability [%]
Conditions | NOMO1 [6] | P12-Ichikawa [1] | SEM cells [2]
HPLM + 10% dialyzed FBS, 0.000781 µM | 101 | 95.8 | 99.3
HPLM + 10% dialyzed FBS, 0.00234 µM | 106 | 102 | 93.8
HPLM + 10% dialyzed FBS, 0.00702 µM | 111 | 92 | 102
HPLM + 10% dialyzed FBS, 0.0211 µM | 107 | 104 | 100
HPLM + 10% dialyzed FBS, 0.0632 µM | 90.2 | 103 | 111
HPLM + 10% dialyzed FBS, 0.19 µM | 97.9 | 96.7 | 87
HPLM + 10% dialyzed FBS, 0.569 µM | 94.5 | 89.5 | 104
HPLM + 10% dialyzed FBS, 1.71 µM | 77.5 | 79 | 72.8
HPLM + 10% dialyzed FBS, 5.12 µM | 41.5 | 67.6 | 82.7
HPLM + 10% dialyzed FBS, 15.4 µM | 34.4 | 42 | 52.9
HPLM + 10% dialyzed FBS, 46.1 µM | 24.3 | 28.4 | 31.8
RPMI 5 mM glucose + 10% FBS, 0.000781 µM | 98.8 | 92 | 97.8
RPMI 5 mM glucose + 10% FBS, 0.00234 µM | 107 | 97.5 | 98.9
RPMI 5 mM glucose + 10% FBS, 0.00702 µM | 97.9 | 92.7 | 106
RPMI 5 mM glucose + 10% FBS, 0.0211 µM | 99.5 | 99 | 109
RPMI 5 mM glucose + 10% FBS, 0.0632 µM | 87.6 | 100 | 105
RPMI 5 mM glucose + 10% FBS, 0.19 µM | 97 | 96.8 | 96.1
RPMI 5 mM glucose + 10% FBS, 0.569 µM | 77.2 | 79.5 | 95.4
RPMI 5 mM glucose + 10% FBS, 1.71 µM | 68.2 | 64.3 | 85.9
RPMI 5 mM glucose + 10% FBS, 5.12 µM | 19.3 | 53.2 | 66.9
RPMI 5 mM glucose + 10% FBS, 15.4 µM | 22.6 | 45 | 34.9
RPMI 5 mM glucose + 10% FBS, 46.1 µM | 21.4 | 26.4 | 13.4
RPMI 5 mM glucose + 10% dialyzed FBS, 0.000781 µM | 99.8 | 90 | 104
RPMI 5 mM glucose + 10% dialyzed FBS, 0.00234 µM | 93 | 89.4 | 100
RPMI 5 mM glucose + 10% dialyzed FBS, 0.00702 µM | 90.9 | 88.5 | 101
RPMI 5 mM glucose + 10% dialyzed FBS, 0.0211 µM | 98.6 | 89.5 | 96.8
RPMI 5 mM glucose + 10% dialyzed FBS, 0.0632 µM | 95.4 | 89.8 | 90.3
RPMI 5 mM glucose + 10% dialyzed FBS, 0.19 µM | 85.8 | 80.6 | 81.3
RPMI 5 mM glucose + 10% dialyzed FBS, 0.569 µM | 75.9 | 71.5 | 70.8
RPMI 5 mM glucose + 10% dialyzed FBS, 1.71 µM | 38.7 | 60.7 | 73.8
RPMI 5 mM glucose + 10% dialyzed FBS, 5.12 µM | 15.1 | 52.3 | 54.9
RPMI 5 mM glucose + 10% dialyzed FBS, 15.4 µM | 18.8 | 40 | 35.3
RPMI 5 mM glucose + 10% dialyzed FBS, 46.1 µM | 17.5 | 24.9 | 7.57

AUC of viability dose-response curve
Conditions | NOMO1 [3] | P12-Ichikawa [4] | SEM cells [5]
HPLM + 10% dialyzed FBS | 382 | 399 | 415
RPMI 5 mM glucose + 10% FBS | 352 | 373 | 396
RPMI 5 mM glucose + 10% dialyzed FBS | 322 | 343 | 358

C#CCN[C@@H]1CCc2ccccc21.CS(=O)(=O)O
cell viability [%]
Conditions | NOMO1 [6] | P12-Ichikawa [1] | SEM cells [2]
HPLM + 10% dialyzed FBS, 0.000781 µM | 107 | 105 | 105
HPLM + 10% dialyzed FBS, 0.00234 µM | 93.4 | 100 | 101
HPLM + 10% dialyzed FBS, 0.00702 µM | 108 | 91 | 83.6
HPLM + 10% dialyzed FBS, 0.0211 µM | 109 | 105 | 86.2
HPLM + 10% dialyzed FBS, 0.0632 µM | 91.7 | 103 | 110
HPLM + 10% dialyzed FBS, 0.19 µM | 90.3 | 95 | 108
HPLM + 10% dialyzed FBS, 0.569 µM | 96 | 98.2 | 107
HPLM + 10% dialyzed FBS, 1.71 µM | 82.6 | 100 | 106
HPLM + 10% dialyzed FBS, 5.12 µM | 93.9 | 91.2 | 41.2
HPLM + 10% dialyzed FBS, 15.4 µM | 71.3 | 93.5 | 91.7
HPLM + 10% dialyzed FBS, 46.1 µM | 43.2 | 86.4 | 89.2
RPMI 5 mM glucose + 10% FBS, 0.000781 µM | 89.6 | 97.6 | 103
RPMI 5 mM glucose + 10% FBS, 0.00234 µM | 97 | 93.6 | 112
RPMI 5 mM glucose + 10% FBS, 0.00702 µM | 92.7 | 90.5 | 56.8
RPMI 5 mM glucose + 10% FBS, 0.0211 µM | 87.9 | 95.2 | 97.3
RPMI 5 mM glucose + 10% FBS, 0.0632 µM | 94 | 101 | 112
RPMI 5 mM glucose + 10% FBS, 0.19 µM | 88.1 | 103 | 105
RPMI 5 mM glucose + 10% FBS, 0.569 µM | 91.1 | 93.7 | 106
RPMI 5 mM glucose + 10% FBS, 1.71 µM | 84.2 | 85.6 | 100
RPMI 5 mM glucose + 10% FBS, 5.12 µM | 84.2 | 95.9 | 24.4
RPMI 5 mM glucose + 10% FBS, 15.4 µM | 96.5 | 92.9 | 96
RPMI 5 mM glucose + 10% FBS, 46.1 µM | 67.2 | 84.2 | 95.2
RPMI 5 mM glucose + 10% dialyzed FBS, 0.000781 µM | 86.1 | 89.5 | 107
RPMI 5 mM glucose + 10% dialyzed FBS, 0.00234 µM | 99.9 | 91.9 | 116
RPMI 5 mM glucose + 10% dialyzed FBS, 0.00702 µM | 105 | 94.9 | 74.2
RPMI 5 mM glucose + 10% dialyzed FBS, 0.0211 µM | 99.8 | 88.8 | 82.9
RPMI 5 mM glucose + 10% dialyzed FBS, 0.0632 µM | 106 | 101 | 99.7
RPMI 5 mM glucose + 10% dialyzed FBS, 0.19 µM | 101 | 99.1 | 105
RPMI 5 mM glucose + 10% dialyzed FBS, 0.569 µM | 93.7 | 97 | 99.8
RPMI 5 mM glucose + 10% dialyzed FBS, 1.71 µM | 107 | 85.5 | 106
RPMI 5 mM glucose + 10% dialyzed FBS, 5.12 µM | 85.1 | 83.6 | 42.8
RPMI 5 mM glucose + 10% dialyzed FBS, 15.4 µM | 90.6 | 83.7 | 110
RPMI 5 mM glucose + 10% dialyzed FBS, 46.1 µM | 81.8 | 83.5 | 86.3

AUC of viability dose-response curve
Conditions | NOMO1 [3] | P12-Ichikawa [4] | SEM cells [5]
HPLM + 10% dialyzed FBS | 436 | 463 | 445
RPMI 5 mM glucose + 10% FBS | 426 | 448 | 441
RPMI 5 mM glucose + 10% dialyzed FBS | 459 | 434 | 438
